# Experiments:
# BGC823-LPC2 cells = experiment: BGC823-LPC2 passive metastasis model; type: in vivo, nude mice; conditions: compared with the solvent control group
# Description: On the basis of the positive results obtained in the cell model, the animal model was then validated. A passive metastasis model was constructed using BGC823-LPC2 cells injected through the tail vein of nude mice. The mice were randomized on the second day and given control solvent, EGCG, WP-1130 alone, and WP-1130 plus sh-PFN1 lentivirus in a sequential manner.
# [1] = test system: BGC823 cells and BGC823-LPC1; experiment: Transwell experiment after FASN inhibitor EGCG; type: cell-based; conditions: different concentrations, 24 hours
# Protocol: Further validation of the relationship between FASN and gastric cancer metastasis using transwell and scratch experiments: BGC823 cells and BGC823-LPC1 (primary cells of residual lung metastases in the animal model SP141 and JP3 combined intervention group) were treated with different concentrations of FASN inhibitor EGCG for 24 hours, followed by transwell experiments. […] The inhibition rate of perforation cells was similar in both types of cells (FIG. 20B). […] As shown in FIGS. 20A-20D, intervention on FASN can inhibit the migration of gastric cancer cells.
# FASN [2] = experiment: Immunoblotting of FASN and FAK after EGCG; type: cell-based; conditions: dose-response
# FASN [3] = experiment: Protein mass spectrometry of residual lung metastatic lesions; type: in vivo, mice
# Description: On the basis of the above model, primary cells were extracted from the residual gastric cancer cells metastatic foci of the lungs of EGCG-treated mice, named BGC823-LPC2. Firstly, protein mass spectrometry analysis was continued on the residual metastatic lesions in the lungs of the EGCG group and the combined treatment group with SP141 and JP3, with a focus on observing the protein expression changes of each independent molecule identified in 1.4 above.
# BGC823-LPC1 = BGC823-LPC1 passive metastasis model; type: in vivo, mice; conditions: compared to the solvent control group
# Protocol: A passive metastasis model was constructed by extracting primary cells BGC823-LPC1 from residual lung metastases after joint intervention on JWA and MDM2. On the second day after injecting cells into the tail vein of the model mice, they were grouped and administered. During the medication period, they were weighed on time. At the end of the modeling, the lung wet weight of each group of mice was measured, and the situation of lung metastases was observed.
# [4] = test system: gastric cancer cell line MFC; experiment: MFC abdominal implant metastasis model; type: in vivo, mouse
# Protocol: The mouse-derived gastric cancer cell line MFC were selected to construct an abdominal implant metastasis model. On the second day of cell inoculation, different doses of SP141 were administered intraperitoneally for intervention. The modeling was completed and the number of abdominal metastatic nodules was recorded.
# BGC823 = experiment: CCK-8 half inhibitory concentration on gastric cancer cells; type: cell-based; conditions: CCK-8, BGC823
# AGS cells = experiment: Transwell assay in AGS cells, Flag-JWA plasmid and SP141; type: cell-based; conditions: compared to the control group
# Description: Thus, as shown in FIGS. 10A-10B, the combined intervention of JWA and MDM2 has a synergistic inhibitory effect on gastric cancer cell migration.
# MGC803 = experiment: CCK-8 half inhibitory concentration on gastric cancer cells; type: cell-based; conditions: CCK-8, MGC803
# SGC7901 = experiment: as above; type: cell-based; conditions: CCK-8, SGC7901
# MDM2 [5] = experiment: MDM2 and JWA protein expression in BGC823 cells after SP141; type: cell-based; conditions: BGC823, 0, 0.25, 0.5 μM, 24 hours
# Protocol: With a cell model, the mutual regulation between JWA and MDM2 proteins was examined. […] Thereafter, 0, 0.25, 0.5 μM SP141 were used to inhibit the expression level of MDM2 in gastric cancer cells BGC823 for 24 hours. […] Thus, it can be seen that as shown in FIGS. 9A-9C, in gastric cancer, JWA and MDM2 have no mutually regulatory relationship at the protein and mRNA levels, and their respective biological functions on gastric cancer cells are independent.
# BGC823-luc = BGC823-luc tail vein passive metastasis model, in vivo fluorescence imaging; design: species or system nude mice
# Protocol: In an in vivo model, fluorescent labeled gastric cancer cells BGC823-luc were injected into the tail vein of nude mice to construct a passive metastasis model of gastric cancer. Drug intervention began on the second day after cell inoculation (FIG. 11A). […] The weight of the mice of the drug intervention group was relatively stable and in good condition (FIG. 11B). […] Thus, as shown in FIGS. 11A-11D, the joint intervention of JWA and MDM2 has a synergistic inhibitory effect on gastric cancer metastasis in vivo.
# MDM2 [6] = experiment: MDM2 and JWA protein expression in B16F10 cells after SP141; type: cell-based; conditions: B16F10, 0, 0.25, 0.5 μM, 24 hours
# Protocol: The relationship between the expression levels of JWA and MDM2 genes and the prognosis of melanoma population was analyzed using the TCGA database. […] Meanwhile, melanoma cells B16F10 were treated respectively with 0, 0.25, 0.5 μM SP141 for 24 hours, and the protein expression levels of MDM2 and JWA were measured.
# [7] = test system: gastric cancer cells BGC823, SGC7901, and MFC; experiment: Cell scratch assay after SP141; type: cell-based
# AGS = experiment: CCK-8 half inhibitory concentration on gastric cancer cells; type: cell-based; conditions: CCK-8, AGS
# MFC = experiment: as above; type: cell-based, mouse; conditions: CCK-8, MFC
# [8] = test system: gastric cancer cells BGC823, SGC7901, and MFC; experiment: Perforated cell count (transwell) after SP141; type: cell-based; conditions: different doses, 24 hours
# B16F10 melanoma cells = experiment: B16F10 tail vein passive lung metastasis model; type: in vivo, mice; conditions: different doses, dose-response
# Protocol: A passive metastasis model was constructed by injecting B16F10 melanoma cells into the tail vein of mice. On the second day of cell inoculation, the mice were grouped, and Ctrl-R or JP1 peptides were injected intraperitoneally for intervention. […] Note: Ctrl-R peptide and JP1 peptide can be found in Cui J, et al. Theranotics 2020; 10 (18): Recorded in 8036-8050.
# A passive metastatic mouse model was constructed using B16F10 cells. On the second day of cell inoculation, different doses of SP141 were used for intervention. At the end of the modeling, the number of metastatic nodules in the lungs was recorded. As shown in FIGS. 29A-29D, SP141 can inhibit the lung metastasis of melanoma in mice, and there is a dose-response relationship. […] Conclusion: inhibition of MDM2 by SP141 can effectively reduce in vivo metastasis of melanoma in mice.
# The mouse model validation was further carried out on the basis of cell model validation. A lung metastasis model with B16F10 cell tail vein injection was constructed, and on the second day, the mice were randomly grouped according to their body weight for drug intervention. As shown in FIGS. 31A-31F, the joint intervention of JWA and MDM2 has a synergistic inhibitory effect on the in vivo metastasis of melanoma. […]
# BGC823-LPC2 = experiment: Transwell experiment in BGC823-LPC2 cells; type: cell-based; conditions: treated 8 hours, dose-response
# Protocol: To verify the relationship between USP9X and gastric cancer metastasis, cultured BGC823 LPC2 cells were first treated with USP9X inhibitor WP-1130 (existing product) for 8 hours before a transwell experiment. […] Thus, it can be seen that inhibiting the expression of USP9X can effectively reduce the migration of gastric cancer cells.
# For the heterogeneous molecule PFN1, a low expression lentiviral plasmid sh-PFN1 was constructed due to the lack of commercialized inhibitor compounds. Transwell experiments were performed after transfection of sh-con and sh-PFN1 in BGC823-LPC2 for 48 hours.
# BGC823 LPC2 cells = experiment: Scratch experiment after WP-1130; type: cell-based
# USP9X = experiment: Immunoblotting of USP9X and p-AKT after WP-1130; type: cell-based; conditions: dose-response
compound,measurement,setting,value
O=C(O[C@@H]1Cc2c(O)cc(O)cc2O[C@@H]1c1cc(O)c(O)c(O)c1)c1cc(O)c(O)c(O)c1 [EGCG],lung metastatic foci,BGC823-LPC2 cells,did not decrease significantly
same,lung wet weight,BGC823-LPC2 cells,not obvious
same,number of perforation cells,[1],significantly reduced
same,expression level of FASN protein,FASN [2],reduced
same,transfer related protein FAK,FASN [2],correspondingly reduced
same,rest of the proteins inhibited,FASN [3]; other independent molecules identified in 1.4,less than 20%
same,FASN inhibited,"FASN [3]; residual lung metastatic lesions, vs SP141 and JP3 combined treatment group",22%
same,lung wet weight,BGC823-LPC1,significant decrease
same,number of metastatic foci,BGC823-LPC1,significant decrease
CCCCCCCCCCC[C@@H](C[C@@H]1OC(=O)[C@H]1CCCCCC)OC(=O)[C@H](CC(C)C)NC=O [Orlistat],lung wet weight,BGC823-LPC1,significant decrease
same,number of metastatic foci,BGC823-LPC1,significant decrease
COc1ccc2[nH]c3c(-c4cccc5ccccc45)nccc3c2c1 [SP141],number of abdominal metastatic nodules compared with the control group,[4]; 40 mg/kg group,statistically significant
same,MDM2 protein levels in residual tumor tissues,"[4]; 40 mg/kg group vs control, immunoblotting",significant decrease
same,number of gastric cancer abdominal implantation metastases,[4]; different doses intraperitoneally,could inhibit the number of gastric cancer abdominal implantation metastases
same,IC50,BGC823,0.599 µM
same,number of cell perforations,AGS cells,decrease
same,IC50,MGC803,0.616 µM
same,IC50,SGC7901,0.687 µM
same,protein expression level of JWA,MDM2 [5],no significant change
same,protein expression level of MDM2,MDM2 [5],decreased with increasing SP141 dose
same,fluorescence intensity of lung metastases,BGC823-luc,weaker than that of the control group
same,JWA protein expression level,MDM2 [6],no significant change
same,protein expression level of MDM2,MDM2 [6],decreased with increasing SP141 dose
same,migration rate of the cells,[7],significantly slowed down
same,IC50,AGS,0.335 µM
same,IC50,MFC,0.345 µM
same,number of perforated cells,[8],gradually decreased with increasing dose
same,lung metastasis of melanoma,B16F10 melanoma cells,can inhibit
CCC[C@H](NC(=O)/C(C#N)=C/c1cccc(Br)n1)c1ccccc1 [WP-1130],number of cell perforations,BGC823-LPC2,significantly inhibit
same,scratch experiment,BGC823 LPC2 cells,consistent with those of the small chamber perforation experiment
same,lung metastatic foci,BGC823-LPC2 cells,decreased significantly
same,lung wet weight,BGC823-LPC2 cells,decreased significantly
same,expression of USP9X protein,USP9X,reduced
same,transfer related protein p-AKT,USP9X,correspondingly reduced

# From US12475972B2, “Prediction system for identifying key heterogeneous molecules driving tumor metastasis” (NANJING HANWEI PUBLIC HEALTH TECHNOLOGY CO., LTD., priority 2021, dated 2025)
